Like-named read-outs stand apart in the source and are kept apart here.
Experiments:
T98 cells [1] = test: Cell viability assay (PrestoBlue, 5 d) in T98 glioma cells; type: cell-based; conditions: PrestoBlue day 5; for EC50 in T98 cells: repeat for most potent hits, 7-point half-log dose-response 1 to 1,000 nM; for activity (EC50) of novel compounds in T98, in words: 1 to 30,000 nM, Fig. 7
U87 cells [2] = test: Cell viability assay (PrestoBlue, 5 d) in U87 glioma cells; type: cell-based; conditions: PrestoBlue day 5; for EC50 in U87 cells: repeat for most potent hits, 7-point half-log dose-response 1 to 1,000 nM; for activity (EC50) of novel compounds in U87, in words: 1 to 30,000 nM, Fig. 7
[3] = tested on: G317 patient-derived glioma cells; test: Growth inhibition (GI50, PrestoBlue, 5 d) in patient-derived glioma cells G317; type: cell-based, human; conditions: 5 d treatment, growth related to t=0 and DMSO, extrapolated from sigmoidal dose-response curve; for GI50: read-out: GI50 (50% of growth inhibition) in G317
Method: Cells were treated with each inhibitor at concentrations ranging from 1 to 10,000 nM and PrestoBlue assay used at day 5 to detect viability. […] Data are means ± SEM of 3 independent experiments in triplicates.
(§1) U87 and T98 cells (ATCC) were cultured in DMEM (Gibco), supplemented with 10% (v/v) FBS (Gibco) and 2 mM L-Glutamine (Gibco) in a standard incubator (95% humidity, 5% CO2), and subcultured twice per week through trypsinization. G317 patient-derived glioma cells were established by the Glioma Cellular Genetics Resource (gcgr.org.uk) funded by Cancer Research UK. Ethics approval for use of patient-derived cells and early access confirmation to reagents from the Glioma Cellular Genetics Resource assured that all ethical issues according to UK legislation are fulfilled. G317 were cultured in DMEM/HAMS-F12 (Sigma) supplemented with 1.5 g L^−1 D-(+)-Glucose (Sigma), MEM non-essential aminoacids (Gibco), 0.015% (w/v) Penicillin-Streptomycin (Gibco), 0.012% (w/v) BSA (Gibco), 0.1 mM β-mercaptoethanol (Gibco), B27 (Gibco) and N2 supplements (Gibco). Cells were detached using accutase solution (Sigma) and subcultured once per week. Before adding to the cells, medium was supplemented with 10 ng ml^−1 mouse EGF (Preprotech), 10 ng ml^−1 human FGF (Preprotech), and 1 µg ml^−1 Laminin (Sigma).
(§2) 1 × 10^3 U87 cells/well, 5 × 10^2 T98 cells/well, 1 × 10^4 G317 cells/well, 1 × 10^4 HBVP cells/well and 1 × 10^4 bEnd3 cells/well were seeded in 96-well plates. After 48 h in culture, cells were treated with the inhibitors for 5 d. For GI50 determination, the viability of a triplicate sample of each experiment before treatment was measured with the PrestoBlue Reagent (Invitrogen), to establish a basepoint 0% of growth. […] ZIP Synergy scores were obtained with Synergy finder.[22] Viability percentage, EC50 and GI50 values were obtained using GraphPad Prism version 8.0.0 for Windows, GraphPad Software, San Diego, California USA, www.graphpad.com.
Table S2 . GI 50 values (nM) calculated for eCF309 , eCF311 , eCF312 , eCF324 , eCF325 and controls
Cells were treated with 10, 3, 1 µM,
300, 100, 30, 10, 3, 1, 0 nM of each inhibitor during 5 d. Cell growth (PrestoBlue) was related to t=0 (before
drug treatment), and GI 50 values were extrapolated from their corresponding sigmoidal dose-response curve

U87 cells [4] = test: Cell viability assay (PrestoBlue, 5 d) in U87 glioma cells; type: cell-based; conditions: library screen, 5 d treatment, mean of three independent experiments in triplicates, read-out: EC50 U87 ± SEM
Method: (§3) The antiproliferative activity of a total of 100 compounds was tested against U87 and T98 glioma cell lines, using TMZ[3] and the Topoisomerase I inhibitor SN-38[18] as positive controls. Cells were treated with the library members for 5 d at three different concentrations (3, 30 and 300 µM) and cell viability determined using the PrestoBlue reagent. Half-maximal effective concentration (EC50) values were calculated from the corresponding dose-response curves and plotted in Fig. 2a as a heatmap to facilitate data analysis, with black meaning no activity and dark to light green to yellow transitions indicating decreasing EC50 values (=increasing potencies). Table 1 of the Suppl. Data contains the corresponding EC50 values ± SEM.
(§4) INK128 and SN-38 were used as positive controls. […] Structurally, these derivatives differed in the size of the alkyl group of the N1 position and the presence or absence of an oxygen atom in that moiety (see Suppl. Data).
as §1, §2

mTOR = tested on: mTOR; parameters: method as in earlier work; conditions: recombinant kinase; previously obtained kinase profiling data; cited from earlier work
PI3Kα = tested on: PI3Kα; parameters: method as in earlier work; conditions: recombinant kinase; previously obtained kinase profiling data; cited from earlier work
T98 cells [5] = test: Cell viability assay (PrestoBlue, 5 d) in T98 glioma cells; type: cell-based; conditions: library screen, 5 d treatment, mean of three independent experiments in triplicates, read-out: EC50 T98 ± SEM
Method: as §3, §4, §1, §2

[6] = Homo sapiens, Glioma cell, 120 h

EC50 (U87 cells [4]) [µM] | EC50 (T98 cells [5]) [µM] | Compound | also measured
 |  | 2-(1H-Indazol-4-yl)-6-(4-methanesulfonyl-piperazin-1-ylmethyl)-4-morpholin-4-yl-thieno[3,2-d]pyrimidine [GDC0941, reference compound] | activity (EC50) against T98, in words (T98 cells [1]; 1 to 1,000 nM, Fig. 3): sub-µM activity; activity (EC50) in U87 cells, in words (U87 cells [2]; 1 to 1,000 nM, Fig. 3): low µM activity
 |  | CCc1c2c(nc3ccc(O)cc13)-c1cc3c(c(=O)n1C2)COC(=O)[C@]3(O)CC [SN-38, reference compound] | GI50 [3, 6]: 12.9 nM
 |  | CCOC(Cn1nc(-c2ccc3oc(N)nc3c2)c2c(N)ncnc21)OCC [eCF309] | EC50 (U87 cells [4]; Homo sapiens, U-87 MG, 120 h): 0.129 ± 0.019 µM; IC50 (mTOR): 15 nM; GI50 [3]: 64.9 nM; GI50 [3, 6]: 65 nM; IC50 (PI3Kα): 981 nM; EC50 (T98 cells [5]; Homo sapiens, T98, 120 h): 0.128 ± 0.022 µM
 |  | Nc1nc2cc(-c3nn(CC4OCCO4)c4ncnc(N)c34)ccc2o1 [eCF311] | EC50 (U87 cells [4]; Homo sapiens, U-87 MG, 120 h): 0.392 ± 0.058 µM; GI50 [3, 6]: 147 nM; EC50 (T98 cells [5]; Homo sapiens, T98, 120 h): 0.323 ± 0.087 µM
 |  | COC(Cn1nc(-c2ccc3oc(N)nc3c2)c2c(N)ncnc21)OC [eCF312] | EC50 (U87 cells [4]; Homo sapiens, U-87 MG, 120 h): 0.116 ± 0.021 µM; GI50 [3, 6]: 36.9 nM; EC50 (T98 cells [5]; Homo sapiens, T98, 120 h): 0.08 ± 0.021 µM
 |  | Nc1nc2cc(-c3nn(CC4CCCO4)c4ncnc(N)c34)ccc2o1 (stereo not drawn) [eCF325] | EC50 (U87 cells [4]; Homo sapiens, U-87 MG, 120 h): 0.138 ± 0.023 µM; GI50 [3, 6]: 46.4 nM; EC50 (T98 cells [5]; Homo sapiens, T98, 120 h): 0.105 ± 0.023 µM
 |  | Nc1nc2cc(-c3nn(C[C@H]4CCCO4)c4ncnc(N)c34)ccc2o1 [eCF333] | EC50 (U87 cells [4]; Homo sapiens, U-87 MG, 120 h): 0.131 ± 0.01 µM; GI50 (50% of growth inhibition) in G317 [3]: identical dose response curves to eCF325; EC50 in T98 cells (T98 cells [1]): identical dose response curves to that of eCF325; EC50 (T98 cells [5]; Homo sapiens, T98, 120 h): 0.088 ± 0.014 µM; EC50 in U87 cells (U87 cells [2]): identical dose response curves to that of eCF325
 |  | Nc1nc2cc(-c3nn(C[C@@H]4CCCO4)c4ncnc(N)c34)ccc2o1 [eCF334] | EC50 (U87 cells [4]; Homo sapiens, U-87 MG, 120 h): 0.138 ± 0.013 µM; GI50 (50% of growth inhibition) in G317 [3]: identical dose response curves to eCF325; EC50 in T98 cells (T98 cells [1]): identical dose response curves to that of eCF325; EC50 (T98 cells [5]; Homo sapiens, T98, 120 h): 0.1 ± 0.018 µM; EC50 in U87 cells (U87 cells [2]): identical dose response curves to that of eCF325
 |  | CNc1ncc2c(-c3ccc4oc(N)nc4c3)nn(CC3CCCC3)c2n1 [eDB001] | activity (EC50) of novel compounds in T98, in words (T98 cells [1]): high activity; activity (EC50) of novel compounds in U87, in words (U87 cells [2]): high activity
 |  | Nc1ncnc2c1c(-c1cnc3[nH]ccc3c1)nn2CC1CCCC1 [eDB002] | activity (EC50) of novel compounds in T98, in words (T98 cells [1]): high activity; activity (EC50) of novel compounds in U87, in words (U87 cells [2]): high activity
20.9 ± 1.73 | 6.36 ± 0.563 | CNc1ncc2c(-c3ccc(OC)cc3)nn(CC3CCCC3)c2n1 [eSM105] | 
> 30 | > 30 | CNc1ncc2c(-c3ccc(C(N)=O)cc3)nn(CC3CCCC3)c2n1 [eSM106] | 
3.33 ± 0.166 | 2.42 ± 0.504 | CNc1ncc2c(-c3ccc(N4CCNCC4)nc3)nn(CC3CCCC3)c2n1 [eSM107] | 
23.8 ± 2.78 | > 30 | CNc1ncc2c(-c3cccc(C(N)=O)c3)nn(CC3CCCC3)c2n1 [eSM108] | 
> 30 | > 30 | CNc1ncc2c(-c3ccc(OC)cc3)nn(CC3OCCO3)c2n1 [eSM110] | 
> 30 | > 30 | CNc1ncc2c(-c3ccc(-c4ccccc4)cc3)nn(CC3OCCO3)c2n1 [eSM111] | 
21.3 ± 2.35 | 9.26 ± 0.465 | CNc1ncc2c(-c3ccc(N4CCNCC4)nc3)nn(CC3OCCO3)c2n1 [eSM112] | 
> 30 | > 30 | CNc1ncc2c(-c3ccc(F)cc3)nn(CC3OCCO3)c2n1 [eSM113] | 
> 30 | > 30 | CNc1ncc2c(-c3ccc(C(F)(F)F)cc3)nn(CC3OCCO3)c2n1 [eSM114] | 
9.73 ± 1.22 | 11.3 ± 0.882 | CNc1ncc2c(-c3ccc(N4CCNCC4)nc3)nn(Cc3cn(Cc4ccccc4)nn3)c2n1 [eSM119] | 
16.5 ± 1.88 | 26.3 ± 1.81 | CNc1ncc2c(-c3ccc(N4CCNCC4)nc3)nn(Cc3cn(C4CCCC4O)nn3)c2n1 (stereo not drawn) [eSM121] | 

EC50 (U87 cells [4]) [µM] | EC50 (T98 cells [5]) [µM] | Compound | also measured
25.4 ± 4.66 | 24.2 ± 3.6 | CNc1ncc2c(-c3ccc(N4CCNCC4)nc3)nn(Cc3cn(C4CCCCC4O)nn3)c2n1 (stereo not drawn) [eSM123] | 
> 30 | 15.6 ± 2.75 | CCNc1ncc2c(-c3ccc(N4CCNCC4)nc3)nn(CC3OCCO3)c2n1 [eSM133] | 
18.9 ± 5.27 | 18.8 ± 3.57 | CNc1ncc2c(-c3ccc(N4CCN(C)CC4)nc3)nn(Cc3cn(Cc4ccccc4)nn3)c2n1 [eSM134] | 
13 ± 0.291 | 6.26 ± 1.39 | CNc1ncc2c(-c3ccc(N4CCNCC4)cc3)nn(Cc3cn(Cc4ccccc4)nn3)c2n1 [eSM135] | 
6.09 ± 1.39 | 8.6 ± 3.39 | CNc1ncc2c(-c3ccc(N4CCNCC4)nc3)nn(Cc3cn(-c4ccccc4)nn3)c2n1 [eSM139] | 
3.06 ± 0.833 | 3.02 ± 0.568 | CNc1ncc2c(-c3ccc(N4CCNCC4)nc3)nn(Cc3cn(-c4ccc(Cl)cc4)nn3)c2n1 [eSM143] | 
14.2 ± 0.557 | 9.11 ± 1.67 | CNc1ncc2c(-c3cnc4[nH]ccc4c3)nn(Cc3cn(Cc4ccccc4)nn3)c2n1 [eSM145] | 
> 30 | > 30 | CNc1ncc2c(-c3ccc(N(C)C)nc3)nn(Cc3cn(Cc4ccccc4)nn3)c2n1 [eSM146] | 
> 30 | > 30 | CNc1ncc2c(-c3ccc(N4CCN(C(=O)NC(C)(C)C)CC4)nc3)nn(CC3CCCC3)c2n1 [eSM149] | 
22.7 ± 9.53 | 10.1 ± 3 | CNc1ncc2c(-c3ccc(N4CCN(C(=O)C(C)(C)C)CC4)nc3)nn(CC3CCCC3)c2n1 [eSM150] | 
> 30 | > 30 | CNc1ncc2c(-c3ccc(N4CCN(C(=O)C(C)(C)C)CC4)nc3)nn(Cc3cn(Cc4ccccc4)nn3)c2n1 [eSM153] | 
> 30 | > 30 | CCN1CCN(c2ccc(-c3nn(Cc4cn(Cc5ccccc5)nn4)c4nc(NC)ncc34)cn2)CC1 [eSM155] | 
8 ± 3.32 | 1.77 ± 0.865 | CNc1ncc2c(-c3ccc(N4CCN(C)CC4)cc3)nn(CC3CCCC3)c2n1 [eSM156] | 
7.28 ± 2.7 | 1.71 ± 0.512 | CNc1ncc2c(-c3ccc(N4CCN(C)CC4)nc3)nn(CC3CCCC3)c2n1 [eSM157] | 
8.56 ± 0.564 | 6.58 ± 1.47 | COc1ccc(-c2nn(CC3CCCC3)c3ncnc(N)c23)cc1OC [eSM204] | 
14.3 ± 6.14 | 11.9 ± 6.5 | COc1ccc(-c2nn(CC3CCCC3)c3ncnc(N)c23)cc1 [eSM205] | 
19.9 ± 6.03 | 21.3 ± 3.28 | NC(=O)c1ccc(-c2nn(CC3CCCC3)c3ncnc(N)c23)cc1 [eSM207] | 
23.6 ± 2.51 | 15.6 ± 1.45 | Nc1ncnc2c1c(-c1ccoc1)nn2C1CCCC1 [eSM209] | 
25 ± 3.15 | 18.8 ± 2.69 | Nc1ncnc2c1c(-c1ccc(C(F)(F)F)cc1)nn2CC1CCCC1 [eSM210] | 
> 30 | 24.6 ± 3.25 | Nc1ncnc2c1c(-c1ccc(F)cc1)nn2CC1CCCC1 [eSM211] | 
> 30 | 22.8 ± 3.13 | Nc1ncnc2c1c(-c1ccc(-c3ccccc3)cc1)nn2CC1CCCC1 [eSM212] | 

Source: PMC6961122 (Bioorganic & Medicinal Chemistry, 2020)
